Measurements from patent US12286428B2 (BRISTOL-MYERS SQUIBB COMPANY, priority 2019, dated 2025).

Experiments:
[1] = test system: Human whole blood, IL-6 levels after TLR2 agonist lipoteichoic acid; test: IRAK4 Whole Blood Assay; format: cell-based; conditions: compounds 60 minutes at 37° C., lipoteichoic acid 10 μg/mL for 5 hours
Protocol: IRAK4 Whole Blood Assay Human whole blood containing the anti-coagulant ACD-A was plated in 384-well plate (25 μL/well) and incubated with compounds for 60 minutes at 37° C. in a 5% CO2 incubator. The blood was stimulated with a TLR2 agonist, 10 μg/mL final concentration of lipoteichoic acid (Invivogen, San Diego, CA) in 25 μL RPMI (Gibco) for 5 hours in a 5% CO2 incubator. At the end of the incubation, plates were centrifuged at 2300 rpm for 5 minutes. Supernatants were harvested and analyzed for IL-6 levels by Flow Cytometry beads assay (BD Biosciences, San Jose, CA).

IRAK4 = target: T1, IRAK4 (Homo sapiens, UniProt Q9NWZ3); test: IRAK4 Inhibition Assay; format: biochemical; conditions: ATP 500 μM, IRAK4 0.6 nM, 60 min room temperature, Caliper LABCHIP 3000
T1 sequence (Q9NWZ3 1-460): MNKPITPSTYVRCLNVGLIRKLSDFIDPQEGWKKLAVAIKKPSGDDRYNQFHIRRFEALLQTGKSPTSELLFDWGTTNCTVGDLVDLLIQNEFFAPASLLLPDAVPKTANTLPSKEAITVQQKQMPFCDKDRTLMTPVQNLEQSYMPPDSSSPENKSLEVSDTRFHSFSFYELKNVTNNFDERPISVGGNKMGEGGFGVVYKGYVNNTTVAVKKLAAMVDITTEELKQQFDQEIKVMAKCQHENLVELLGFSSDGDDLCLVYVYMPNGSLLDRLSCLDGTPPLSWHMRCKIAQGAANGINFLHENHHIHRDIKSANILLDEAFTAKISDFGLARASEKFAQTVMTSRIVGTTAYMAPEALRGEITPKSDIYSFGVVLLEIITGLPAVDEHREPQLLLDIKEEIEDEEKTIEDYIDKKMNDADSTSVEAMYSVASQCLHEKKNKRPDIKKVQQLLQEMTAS
Protocol: The assays were performed in U-bottom 384-well plates. […] The reaction was initiated by the combination of IRAK4 with substrates and test compounds. The reaction mixture was incubated at room temperature for 60 min. and terminated by adding 45 μL of 35 mM EDTA to each sample. The reaction mixture was analyzed on the Caliper LABCHIP® 3000 (Caliper, Hopkinton, MA) by electrophoretic separation of the fluorescent substrate and phosphorylated product. […] The final concentrations of reagents in the assays are ATP, 500 μM; FL-[…] peptide 1.5 μM; IRAK4, 0.6 nM; and DMSO, 1.6%.

[2] = FL-IPTSPITTTYFFFKKK peptide […]

| IC50 [1] | IC50 (IRAK4; [2]) | IC50 (IRAK4; FL-[…] peptide 1.5 μM) | Molecule |
| --- | --- | --- | --- |
| 586 nM | 3.4 nM | – | CC[C@@H]1CC(=O)N[C@@H]1COc1cccc2cc(C(N)=O)c3ncnn3c12 [Example 37, 9-(((2S,3R)-3-ethyl-5-oxopyrrolidin-2-yl)methoxy)-[1,2,4]triazolo[1,5-a]quinoline-4-carboxamide] |
| 1080 nM | – | 9.7 nM | CC[C@@H]1CC(=O)N[C@@H]1COc1nccc2cc(C(N)=O)c3ncnn3c12 [Example 46, 9-(((2S,3R)-3-ethyl-5-oxopyrrolidin-2-yl)methoxy)-[1,2,4]triazolo[1,5-a][1,7]naphthyridine-4-carboxamide] |
| 280 nM | 1.3 nM | – | CC[C@@H]1[C@H](F)C(=O)N[C@@H]1COc1cccc2cc(C(N)=O)c3nccn3c12 [Example 5, 9-(((2S,3S,4S)-3-ethyl-4-fluoro-5-oxopyrrolidin-2-yl)methoxy)imidazo[1,2-a]quinoline-4-carboxamide] |
| 485 nM | 3.2 nM | – | CC[C@@H]1[C@H](F)C(=O)N[C@@H]1COc1nccc2cc(C(N)=O)c3nc(C)cn3c12 [Example 19, 1-(((2S,3S,4S)-3-ethyl-4-fluoro-5-oxopyrrolidin-2-yl)methoxy)-8-methylimidazo[1,2-a][1,7]naphthyridine-6-carboxamide] |
| 306 nM | 15 nM | – | CC[C@@H]1CC(=O)N[C@@H]1COc1cccc2cc(C(N)=O)c3nccn3c12 [Example 2, 9-(((2S,3R)-3-ethyl-5-oxopyrrolidin-2-yl)methoxy)imidazo[1,2-a]quinoline-4-carboxamide] |
| 2250 nM | 16.9 nM | – | CC[C@H]1[C@@H](COc2nccc3cc(C(N)=O)c4ncnn4c23)NC(=O)C1(F)F [Example 48, 9-(((2S,3S)-3-ethyl-4,4-difluoro-5-oxopyrrolidin-2-yl)methoxy)-[1,2,4]triazolo[1,5-a][1,7]naphthyridine-4-carboxamide] |
| 94 nM | 4.7 nM | – | CC[C@@H]1[C@H](F)C(=O)N[C@@H]1COc1nccc2cc(C(N)=O)c3nccn3c12 [Example 17, 1-(((2S,3S,4S)-3-ethyl-4-fluoro-5-oxopyrrolidin-2-yl)methoxy)imidazo[1,2-a][1,7]naphthyridine-6-carboxamide] |
| 1100 nM | 13.6 nM | – | CC[C@@H]1CC(=O)N[C@@H]1COc1nccc2cc(C(N)=O)c3c(c12)CCO3 [Example 54, 1-(((2S,3R)-3-ethyl-5-oxopyrrolidin-2-yl)methoxy)-8,9-dihydrofuro[2,3-h]isoquinoline-6-carboxamide] |
| 279 nM | 0.9 nM | – | CC[C@@H]1[C@H](F)C(=O)N[C@@H]1COc1cccc2cc(C(N)=O)n3nccc3c12 [Example 34, 10-(((2S,3S,4S)-3-ethyl-4-fluoro-5-oxopyrrolidin-2-yl)methoxy)pyrazolo[5,1-a]isoquinoline-5-carboxamide] |
| 1520 nM | 11 nM | – | CC[C@@H]1CC(=O)N[C@@H]1COc1nccc2cc(C(N)=O)c3nccn3c12 [Example 16, 1-(((2S,3R)-3-ethyl-5-oxopyrrolidin-2-yl)methoxy)imidazo[1,2-a][1,7]naphthyridine-6-carboxamide] |
| 1390 nM | 1.9 nM | – | CC[C@H]1[C@@H](COc2cccc3cc(C(N)=O)c4nccn4c23)NC(=O)C1(F)F [Example 10, 9-(((2S,3S)-3-ethyl-4,4-difluoro-5-oxopyrrolidin-2-yl)methoxy)imidazo[1,2-a]quinoline-4-carboxamide] |
| 1030 nM | 9.6 nM | – | CC[C@@H]1CC(=O)N[C@@H]1COc1cccc2cc(C(N)=O)c3nnnn3c12 [Example 44, 9-(((2S,3R)-3-ethyl-5-oxopyrrolidin-2-yl)methoxy)tetrazolo[1,5-a]quinoline-4-carboxamide] |

| Molecule | IC50 [1] | IC50 (IRAK4; [2]) | IC50 (IRAK4; FL-[…] peptide 1.5 μM) |
| --- | --- | --- | --- |
| 1-(((2S,3S,4S)-3-ethyl-4-fluoro-5-oxotetrahydrofuran-2-yl)methoxy)-8-methyl-8,9-dihydrofuro[2,3-h]isoquinoline-6-carboxamide [Example 51] | 399 nM | 3.1 nM | – |
